From PMC10993450, “New benzimidazole derivative compounds with in vitro fasciolicidal properties” (Parasites & Vectors, 2024)
pIC50: −log10 of the molar value.

Columns and labels:
[1] = tested on: Fasciola hepatica eggs (ABZ-susceptible isolate); assay: Egg hatch test (EHT), ABZ-susceptible isolates; assay type: cell-based; settings: mean ± SEM; for % Ovicidal activity: ABZ-susceptible isolate
Description: Eggs were recovered from gallbladders of cattle naturally infected with F. hepatica at the municipal slaughterhouse of León (Spain). For this, the bile of the gallbladders was filtered through sieves of different diameter size pores (500, 150, and 20 µm) using pressurized tap water. Eggs retained on the 20 µm pore size sieve were collected and stored at 4 °C in darkness until required within a maximum period of 2 months.
The susceptibility of the isolates to ABZ was confirmed by the egg hatch test (EHT) using an ABZ discriminant dose (DD) of 0.5 µM [23]. The technique is described in more detail below.
The in vitro anthelmintic activity of a total of 70 BZDs was initially tested on F. hepatica eggs recovered from gallbladders of cattle naturally infected with ABZ-susceptible isolates. The first screening was performed using a fixed concentration of 50 µM. […] Therefore, only BZDs with ovicidal activities over 80% progressed to the next assays at 10 µM. […] At this last concentration, the ovicidal effect of ABZ, ABZSO, and OXF was also evaluated.
The in vitro EHT described in the current study was based on previous studies. Briefly, 100–120 eggs were incubated in 990 µL of water and 10 μL of each working solution at 25 °C in the dark for a period of 12 h. After incubation, eggs were gently washed with tap water three times to facilitate compound removal and kept in darkness at 25 °C for 14 days. After this period, eggs were exposed to light for 2 h to stimulate the hatching of eggs. Then, hatched and unhatched eggs were evaluated and counted using an optical microscope. The term “hatched eggs” includes both hatched and embryonated eggs. Negative control eggs were incubated with 10 μL of DMSO in 990 μL of water, reaching a maximum DMSO concentration of 1% (v/v), while ABZ at 0.5 µM was used as positive control. Each compound at a specific concentration was tested in triplicate in the same EHT and repeated at least two different days.
With the aim to characterize the susceptibility of isolates from naturally infected cattle, the drug used in the EHT was ABZ, tested at a discriminant dose of 0.5 μM. Drug susceptibility is assumed when the ovicidal activity is over 70%, resistance when is lower than 40%, and a suspicion of resistance when activity is between these values at 0.5 μM.
The efficacy of each compound and drug was calculated as its ovicidal activity following the formula below: Ovicidal activity%=100×%eggs hatched in negative control-%egg hatched after drug incubation/%egg hatched in control.

[2] = tested on: murine intestinal organoids; assay: Intestinal tolerability assay on murine intestinal organoids; assay type: cell-based, mouse
Description: (§1) The murine intestinal organoid cultures were prepared following Stemcell Technologies™ protocols (https://www.stemcell.com/intestinal-epithelial-organoid-culture-with-intesticult-organoid-growth-medium-mouse-lp.html#protocols). Small intestine sections from C57BL/6 mice were excised, washed with ice-cold PBS, minced, and 2 mm segments were washed extensively. The segments were treated with Gentle Cell Dissociation Reagent (Stemcell Technologies™, Canada), resuspended in ice-cold PBS with 0.1% BSA and filtered. This process was repeated four times, resulting in four fractions. Cells from each fraction were centrifuged, washed, and resuspended in ice-cold DMEM/F12 supplemented with glutamine and HEPES 15 mM. Each fraction was mixed with Geltrex GFR LDEV-free (Gibco, Thermo Fisher Scientific, USA) and IntestiCult™ Organoid Grow Medium Mouse (Stemcell Technologies™, Canada), added to a 24-well plate and incubated at 37 °C for 10 min for matrix polymerization. The organoids were cultured in IntestiCult™ Organoid Grow Medium Mouse, with medium changes every 2 days and splitting after 7 days.
(§2) For intestinal tolerability assays, selected hit compounds were tested in mouse intestinal organoids at 25 and 50 µM final concentrations. The protocol, based on a previous work, involved the addition of Gentle Cell Dissociation Reagent (Stemcell Technologies™, Canada) on matrix domes, the disruption of the matrix, and the incubation the suspension. After centrifugation, cells were resuspended in DMEM/F12 supplemented with glutamine and HEPES 15 mM and centrifugated again. The pellet was resuspended in a mix of Geltrex GFR LDEV-free and IntestiCult™ Organoid Grow Medium Mouse. The mix was plated in 384-well plates, and after 4 days, mature organoids were exposed to the compounds. The positive control was hydrogen peroxide (0.15% v/v), and the negative control was DMSO (0.2%). Viability after 72 h was assessed using the alamarBlue assay.

HepG2 cells = assay: Cytotoxicity assay, alamarBlue; assay type: cell-based, human
Description: (§3) The effect of the BZDs on cell viability was assessed on a human hepatocarcinoma HepG2 (ATCC® HB-8065™, USA) cell line. Only compounds screened at a concentration of 10 µM were evaluated. The detailed protocol is described in a previous study carried out by our research group. Briefly, 10,000 cells were seeded on 96-well plates and incubated with different concentrations of the compounds ranging from 1 to 100 µM at 37 °C and 5% CO2. After 72 h of exposure, viability of the cells was assessed using the alamarBlue (Fisher Scientific®, Spain) staining method according to the manufacturer’s recommendations.
(§4) The data are represented as mean ± standard error of media (SEM).

[3] = tested on: Teladorsagia circumcincta eggs; settings: type II BZDs; read-out: IC50 against T. circumcincta eggs; cited from earlier work
Haemonchus contortus = settings: sheep infected with Haemonchus contortus, 120 mg/kg; cited from earlier work
Fasciola hepatica eggs = tested on: Fasciola hepatica eggs; design: method as in PMID 19560276; settings: other studies; cited from earlier work
[4] = Cytotoxicity assay, alamarBlue; assay type: cell-based, human; settings: human, HepG2 cells; 72 h exposure, alamarBlue; read-out: CC50 Hep-G2
Description: as §3, §4

[5] = Intestinal tolerability assay on murine intestinal organoids; assay type: cell-based, mouse; settings: C57BL/6, mouse, murine small-intestinal organoids, 72 h
Description: as §1, §2

SMILES | % Ovicidal activity ([1]; 10 µM) | % Ovicidal activity ([1]; 50 µM) | % Viability in organoids ([2]; 25 µM) [%] | CC50 (HepG2 cells) [µM] | further results
Clc1ccc2[nH]c(NCc3ccccc3)nc2c1 [BZD32] | 09.11 ± 03.40% | 92.62 ± 1.96% | 48.10 |  | % Ovicidal activity ([1]; 50 µM, listed as BZD-32): higher than 80%; % Viability in organoids ([2]; 50 µM): 52.10%
COc1ccc2[nH]c(NCc3ccc(N4CCCC4)cc3)nc2c1 [BZD38] | 03.23 ± 00.84% | higher than 80% | 81.10 | > 100 | % Viability in organoids ([2]; 50 µM): 38.00%
Cc1ccc2[nH]c(NC(=O)c3ccccn3)nc2c1 [BZD55] | 07.11 ± 03.01% | 89.71 ± 3.87% | 98.60 | > 100 | % Ovicidal activity ([1]; 50 µM, listed as BZD-55): higher than 80%; pIC50 [3]: ~6.00
O=C(Nc1nc2cc(Cl)ccc2[nH]1)c1ccccn1 [BZD58] | around 50% | higher than 80% | 100 | > 5 | in vivo efficacy (Haemonchus contortus): 95%
COc1ccc2[nH]c(NC(=O)c3ccccn3)nc2c1 [BZD61] |  | 93.17 ± 3.31% |  |  | % Ovicidal activity ([1]; 50 µM, listed as BZD-61): higher than 80%; pIC50 [3]: > 6.00
Nc1cc(C(Cl)=C(Cl)Cl)c(S(N)(=O)=O)cc1S(N)(=O)=O [CLR, clorsulon] |  |  |  |  | Effect on in vitro egg hatching (Fasciola hepatica eggs): did not affect in vitro egg hatching
CSc1nc2cc(Cl)c(Oc3cccc(Cl)c3Cl)cc2[nH]1 [TCBZ, triclabendazole, reference compound] |  |  |  |  | killing at 5 µM ([1]; Fasciola hepatica, 5 µM, read-out: % Ovicidal activity susceptible isolate): ≤ 2%; CC50 at 72 h [4]: > 50 µM; viability at 72 h, 25 µM ([5]; 25 µM): ~82%; viability at 72 h, 50 µM ([5]; 50 µM): ~1.5%; Effect on in vitro egg hatching (Fasciola hepatica eggs): did not affect in vitro egg hatching
